The values that follow come from a melting point compilation (Tetko et al.; mined from patent text by program, amines drawn as free bases though some values may be those of a salt).

Structures are written as SMILES. Bounds are passed on as bounds.

As a reminder, the melting point is the temperature, or range, at which the solid turns liquid.

In turn, `CC(=O)c1ccc2c(C(=O)c3ccc(OCCN4CCCCC4)cc3)c(-c3ccc(O)cc3)sc2c1` gave a melting point of 97 to 100 °C.
In turn, `C#CCOc1cc(Oc2ccccc2)ncn1` yielded a melting point of 71.1 °C.
Take `CS(=O)(=O)c1ccc(-n2cc(C(F)(F)F)nc2-c2ccc(-c3cscn3)cc2)cc1F`: the melting point fell in the range of 112 to 115 °C.
The figure for `O=c1nc(-c2ccccn2)sc2ccc(O)cc12` is 313 to 315 °C.
The figure for `CC12CCC(=O)C=C1CCC1C2CCC2(C)C(c3cccnc3)=CCC12` (centres undefined) is 148 to 150 °C; for `c1ccc(CN2CCOC(CN3c4ccccc4CCc4ccccc43)C2)cc1` (centres undefined) it is 139 to 140 °C.
For `C=Cc1ccc2c(NCc3ccc(NC(=O)C4CCN(Cc5ccccc5)CC4)cc3)nc(N(C)C)nc2c1` the value was 180 °C; for `COc1ccc2c(c1)C(=O)c1ccc(-c3nnn[nH]3)cc1S2(=O)=O`, 253 °C; for `CC1(C)[C@@H](C=C2CC2)[C@@H]1C(=O)O` (relative stereo), 85 °C.
`CC(C)(C)c1ccc(/C=C/C(=O)Nc2ccc3ccn(CCO)c3c2)cc1` registered a melting point of 178 °C.
For `NC(=O)C1CCc2ccc([N+](=O)[O-])cc21` (centres undefined) the value was 144 to 145 °C.
The figure for `CNS(=O)(=O)c1cscc1CCl` is 75 to 76 °C; for `CCCCc1nc2sc(Cl)cc2c(=O)n1CCC` it is 67 to 69 °C.
For `N=C(N)NC(=O)c1cn([C@H](CO)CCc2ccccc2)cn1` the value was 111 to 113 °C.
As to `Oc1cncc(Oc2ccccc2)c1`, the melting point came to 107 °C.
The figure for `CC(=O)NS(=O)(=O)c1ccc2ccc(Oc3c(Cl)cc(C(F)(F)F)cc3Cl)cc2c1` is 137 °C.
For `CC(C#CC1CC(Oc2ccc(F)cc2)C1)N(O)C(N)=O` (centres undefined) the value was 125 to 127 °C; for `Cn1cc(Oc2cc(Cl)ccc2Cl)c(=O)c(-c2cccc(C(F)(F)F)c2)c1`, 162 to 164 °C; for `O=C1CCS(=O)(=O)C1=NO`, 148 °C.
For `CCCc1nn(C)c2c(=O)n(CCOc3cccc(OC(C)(CC)C(=O)O)c3)c(C)nc12` (centres undefined) the value was 130 to 132 °C; for `COC(=O)C[C@@H]1C(=O)NC[C@H](Cc2cc(F)ccc2OC)C(=O)N1S(=O)(=O)c1ccc(Cl)cc1`, 73 to 76 °C; for `CC(=O)NCCCNC(=O)c1cc2c(ccc3cnn(C[C@H](C)N)c32)o1`, 81 °C.
The molecule `Cc1cccc(C)c1-c1cccc2c1CC(CN)O2` (centres undefined) returned a melting point above 250 °C.
For `CC(=O)Nc1nc(CCc2ccc(CO)cc2)cs1` the value was 162 to 165 °C; for `O=C1c2cccc3cccc(c23)C(=O)N1CCN1CCN(CCO)CC1`, 165 to 166 °C.
Turning to `CCOC(=O)c1ccc(NC(=O)c2ccc3c(c2)SCCC3(C)C)cc1`, the melting point was in the range of 148 to 150 °C.
The figure for `CC(C)c1ccc(C2COc3ccc(NC(=O)CC(C)(C)C)cc32)cc1` (centres undefined) is 119 to 120 °C; for `CCS(=O)(=O)c1nnc(N(C(C)=O)C(=O)N(C)C)s1` it is 145 °C; for `COc1ccc2c(c1)cc(C(=O)O)n2C(C)=O` it is 173 to 175 °C.
The figure for `O=C(O)c1ccc(SC(Cn2ccnc2)c2ccccc2O)cc1` (centres undefined) is 186 to 190 °C; for `CC(=O)N(O)Cc1ccccc1Nc1c(Cl)cccc1Cl` it is 165 to 171 °C; for `CCN(CC)CCCC1CCCN(C(=O)N2c3ccccc3NC(=O)c3cccnc32)C1` (centres undefined) it is 123 to 125 °C.
The figure for `COc1ccc(S(=O)(=O)NC(C)c2cc(F)ccc2-c2ccc(F)cc2F)c(OC)c1` (centres undefined) is 192 to 194 °C; for `COc1cc(OC)c(C23CC4CC(CC(C4)C2)C3)cc1C#Cc1ccc(C(=O)O)cc1` it is 152 to 154 °C; for `CC(CC1(c2ccccc2)C=CCC=C1)OS(C)(=O)=O` (centres undefined) it is 51 to 53 °C.
`N#CC(C#N)=C1N(CCCN2CCCCC2)CCN1CCN1CCCCC1` showed a melting point of 88 to 89 °C.
The figure for `O=S(CCCCCCOc1ccc(C2=C(c3ccccc3)CCCc3cc(O)ccc32)cc1)CCCC(F)(F)C(F)(F)F` (centres undefined) is 121 °C.
Turning to `Cc1cc([N+](=O)[O-])cnc1NCCCN`, the melting point lay in the range of 93 to 95 °C.
Consider `Clc1cc(-c2ccccc2)nc2sccc12`, for which the melting point was 83 to 85 °C.
Molecule `CCOc1ccc2c(c1)n(C(C)(C)CC(C)(C)C)c(=O)n2S(=O)(=O)c1ccc([N+](=O)[O-])cc1OC` yielded a melting point of 158 °C.
For the molecule `CC(CO)c1ccc2cc(OCc3ccc4ccccc4n3)ccc2c1` (centres undefined), the melting point lay within 129 to 131 °C.
The figure for `COc1ccc2c(c1)C(N=Cc1cc(OC)c(OC)cc1[N+](=O)[O-])CCO2` (centres undefined) is 143 to 145 °C; for `CCOC(=O)c1conc1-c1ccc(F)c(Br)c1` it is 96 to 97 °C.
In turn, `CC(C)n1nc2ccc(Cl)c([N+](=O)[O-])c2n1` registered a melting point of 67 to 70 °C.
The figure for `CC(C)(C)OC(=O)[C@H](Cc1ccc(O)cc1)NC(=O)c1c(Cl)cccc1Cl` is 177 to 178 °C.
The figure for `COC(=O)c1cccc(-c2ccc(OC)c3c2CC(C)(C)O3)c1` is 89 to 91 °C; for `O=C(O)CCCN(C(=O)c1ccc(Cl)cc1)c1ccccc1-c1ccccc1` it is 135 to 137 °C; for `COc1ccc(-c2[nH]nc3c2C(=O)c2c(NC(=O)C(C)C)cccc2-3)cc1` it is 288 °C.
The molecule `C=CC(=O)Oc1ccc(N2C(=O)C(=C(C)C)/C(=C(\c3cc(C)oc3C)C(C)C)C2=O)cc1` had a melting point of 50 to 52 °C.
The figure for `CNc1nc(Nc2ccc(CCNC(=O)OC(C)(C)C)cc2)ncc1[N+](=O)[O-]` is 70 to 71 °C; for `COc1ccc(Nc2cnc3c(NCc4ccccc4)nc(NCCO)nc3c2)cc1OC` it is 149 to 150 °C.
The figure for `C[C@]12CC[C@@H]3c4ccc(OCC(=O)O)cc4CC[C@H]3[C@@H]1CCC2=O` is 205 to 208 °C; for `COc1cc(C(=O)Nc2cccc3c2CCN(C)C3)cc(OC)c1OC` it is 143 °C.
For `CCOC(=O)/C=C/c1cc(-c2ccc(C)cc2)n(-c2ccc(S(N)(=O)=O)cc2)n1` the value was 167 to 171 °C; for `COC(=O)c1ccc(Cl)c(NN)c1`, 218 to 220 °C.
Consider `Cc1ccc(C(=O)Nc2cc(Cl)c(O)c(Cl)c2)c(O)c1`, for which the melting point is 246 to 247 °C.
As to `CN(c1ccc([N+](=O)[O-])cc1[N+](=O)[O-])S(=O)(=O)c1ccccc1`, the melting point was 152 to 153 °C.
For `Cc1cnc(-c2ccc(CBr)cc2)nc1` the value was 129 to 131 °C.
The figure for `CCC(=Cc1cccc([N+](=O)[O-])c1)C(=O)Oc1ccc(OC)cc1` is 65 to 66 °C.
The molecule `COCCN(CCOC)c1ccccc1NC(N)=S` registered a melting point of 118 to 119 °C.
The figure for `N#CCc1ccc2nc(-c3ccccc3)oc2c1` is 144 °C; for `C#CCOC(=O)c1ccc(O)cc1O` it is 104 to 106 °C; for `CSc1ccc(C=C2c3ccc(F)cc3CC2C)cc1` (centres undefined) it is 67 to 70 °C.
For `N=C(Nc1ccc(C(F)(F)F)cc1)c1ccc(Cl)cc1Cl` the value was 108 to 109 °C; for `CCOC(=O)C(=O)Nc1ccc2c(=O)n3c(nc2c1)C(=Cc1ccccc1)CC3`, 248 to 250 °C.
The figure for `CCc1nc2c(N)nc(C)c(C)c2n1CCOCCNC(=O)NS(=O)(=O)c1ccccc1` is 201 to 203 °C; for `Cc1cc(Oc2ncc(C(F)(F)F)cc2Cl)nn1C(=O)Nc1ccc(Cl)c(Cl)c1` it is 150 to 152 °C; for `Cc1ccc2c(c1)[nH]c(=O)n2C1CCN(C2CCN(C(=O)OC(C)(C)C)CC2)CC1` it is 210 to 211 °C.
`O=Cc1ccc(-c2ccccc2-c2nnn[nH]2)cc1` displayed a melting point of 189 to 190 °C.
The figure for `CC1(C)N=C(c2ccccc2F)c2cc(N)ccc2-n2cnnc21` is 288 °C; for `O=C(Nc1ccc(OC(F)(F)C(F)F)cc1)N1CC(c2ccccc2)C(c2ccc(OC(F)F)cc2)=N1` (centres undefined) it is 132 to 135 °C.
The figure for `CC(C)SN(c1ccccc1)P(=O)(c1ccccc1)c1ccccc1` is 148 to 150 °C; for `O=C(O)CCc1cc(C(c2cc(F)ccc2F)S(=O)(=O)c2ccc(Cl)cc2)c(F)cn1` (centres undefined) it is 89 to 91 °C; for `CCCC1OCc2c(O)c(C)nc(Cl)c21` (centres undefined) it is 242 °C.
The figure for `CC12CCC(C(=O)Nc3ccc(CC#N)cc3)(OC1=O)C2(C)C` (centres undefined) is 147 to 152 °C; for `CN(NC(=O)c1ccc(C#N)cc1)C(=O)OC(C)(C)C` it is 179 to 181 °C; for `Cc1ccc(N(c2ccccc2)c2ccc(-c3ccc(-c4ccc(N(c5ccccc5)c5ccc(C)cc5)cc4)cc3)cc2)cc1` it is 167 to 168 °C.
For `C[C@H](Nc1ncnc2[nH]cnc12)c1oc2ccccc2c(=O)c1-c1cccc(F)c1`, the melting point lay in the range of 135 to 138 °C.
For `COC(=O)C[C@H](NC(c1ccccc1)(c1ccccc1)c1ccccc1)C(=O)C(=[N+]=[N-])C(=O)N(C)OC` the value was 130 to 131 °C; for `Cc1oc2ccccc2c1OC(C)(C)C(N)=O`, 116 to 120 °C.
Molecule `O=C(Nc1ccc(-c2ccccc2Cl)[nH]c1=O)OCc1ccccc1` gave a melting point of 213 to 215 °C.
The figure for `CCCCc1nc(C)c(CCC(=S)N(CC)CC)c(=O)n1Cc1ccc(-c2ccccc2-c2nnn[nH]2)cc1` is 77.8 to 81.1 °C; for `Cc1nc2c(O[C@@H]3c4ccccc4C[C@H]3O)cc(C(=O)O)cn2c1C` (relative stereo) it is 229 to 231 °C; for `Cc1ccc2[nH]ncc2c1N` it is 197 to 200 °C.
For `Cc1cc(N)cc(C)c1O` the value was 135 to 137 °C; for `C[C@H](c1ccccc1)N1C(=O)N[C@@H]2C(=O)OC[C@@H]21`, 123 to 125 °C.
The figure for `CCN1C(=O)SC(=Cc2ccc([N+](=O)[O-])cc2)C1=O` is 217 to 218 °C; for `O=C1c2cc(Cl)ccc2CC1Br` (centres undefined) it is 84 to 87 °C; for `O[C@H]1c2ccc(OCc3ccccc3)cc2OC[C@H]1Oc1cccnc1` (relative stereo) it is 73 to 75 °C.
